Consider 20 molecules from patent publication US20240124464A1, “SUBSTITUTED FUSED BICYCLIC COMPOUND AS KINASE INHIBITOR AND USE THEREOF” (IMPACT THERAPEUTICS (SHANGHAI), INC, priority 2020, published 2024).

Some results are limits rather than exact numbers.

In general, IC50 refers to the point on the concentration scale where inhibition reaches its midpoint.

The target of one experiment is T1, NUAK1(h) enzyme (Homo sapiens, UniProt O60285).
T1 construct: purchased Eurofins Discovery
T1 sequence (O60285 1-661): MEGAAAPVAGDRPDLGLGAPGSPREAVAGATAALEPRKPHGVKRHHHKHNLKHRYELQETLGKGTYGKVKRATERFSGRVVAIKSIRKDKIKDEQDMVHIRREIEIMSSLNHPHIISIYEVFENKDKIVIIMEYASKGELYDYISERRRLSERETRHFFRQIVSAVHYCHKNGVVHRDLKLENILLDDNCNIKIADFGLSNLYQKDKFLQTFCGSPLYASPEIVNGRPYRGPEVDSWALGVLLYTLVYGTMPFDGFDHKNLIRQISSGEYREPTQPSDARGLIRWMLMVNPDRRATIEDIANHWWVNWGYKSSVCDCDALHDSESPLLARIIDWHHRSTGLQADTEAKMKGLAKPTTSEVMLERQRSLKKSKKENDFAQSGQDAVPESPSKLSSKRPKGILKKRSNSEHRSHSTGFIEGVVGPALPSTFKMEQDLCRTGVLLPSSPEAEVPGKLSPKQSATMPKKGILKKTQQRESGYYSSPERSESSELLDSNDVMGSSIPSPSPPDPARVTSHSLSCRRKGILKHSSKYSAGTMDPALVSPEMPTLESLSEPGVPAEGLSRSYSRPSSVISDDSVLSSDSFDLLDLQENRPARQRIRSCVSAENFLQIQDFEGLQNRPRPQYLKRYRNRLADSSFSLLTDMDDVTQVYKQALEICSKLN
In words: In vitro NUAK1 enzymatic assay (Eurofins Discovery, [γ-33P]-ATP filter assay). It counts as biochemical. The following applies: 45 μM ATP, 40 min, room temperature; read-out: IC50, inhibitory effect on NUAK1 enzyme activity. The protocol:
In Vitro Assay to Determine the Inhibitory Effect of Compounds in the Patent on NUAK1 Enzymatic Activity
The in vitro NUAK1 enzymatic assay was carried out at Eurofins Discovery to evaluate the inhibitory effect of the compounds presented in the invention. The assay protocol is as follow: the compound to be tested was mixed with NUAK1(h) enzyme and 300 μM […] substrate in 8 mM MOPS (pH 7.0) buffer containing 0.2 mM EDTA and incubated at room temperature. A Mg/ATP mixture containing 10 mM magnesium acetate and 45 μM [y-33P]-ATP was added to start the reaction. After incubation for 40 min at room temperature, the reaction was terminated by adding 0.5% phosphoric acid. Then, 10 μL of the reaction mix was spotted onto a P30 filter paper followed with four times of wash with 0.425% phosphoric acid solution (4 min each time), and one time wash with methanol. The filter paper was air-dried and counted in a liquid scintillation counter. The values obtained were plotted against the drug concentration and the IC50 was calculated.
Table 1 summarizes the inhibitory effect (IC50) of compounds tested on the NUAK1 enzyme activity in the present invention. ++++ indicates IC50≤10 nM; […]; ++ indicates 100 nM<IC50≤1 μM; + indicates IC50>1 μM.

In the next experiment the target is T2, NUAK2(h) enzyme (Homo sapiens, UniProt Q9H093).
T2 construct: purchased Eurofins Discovery
T2 sequence (Q9H093 1-628): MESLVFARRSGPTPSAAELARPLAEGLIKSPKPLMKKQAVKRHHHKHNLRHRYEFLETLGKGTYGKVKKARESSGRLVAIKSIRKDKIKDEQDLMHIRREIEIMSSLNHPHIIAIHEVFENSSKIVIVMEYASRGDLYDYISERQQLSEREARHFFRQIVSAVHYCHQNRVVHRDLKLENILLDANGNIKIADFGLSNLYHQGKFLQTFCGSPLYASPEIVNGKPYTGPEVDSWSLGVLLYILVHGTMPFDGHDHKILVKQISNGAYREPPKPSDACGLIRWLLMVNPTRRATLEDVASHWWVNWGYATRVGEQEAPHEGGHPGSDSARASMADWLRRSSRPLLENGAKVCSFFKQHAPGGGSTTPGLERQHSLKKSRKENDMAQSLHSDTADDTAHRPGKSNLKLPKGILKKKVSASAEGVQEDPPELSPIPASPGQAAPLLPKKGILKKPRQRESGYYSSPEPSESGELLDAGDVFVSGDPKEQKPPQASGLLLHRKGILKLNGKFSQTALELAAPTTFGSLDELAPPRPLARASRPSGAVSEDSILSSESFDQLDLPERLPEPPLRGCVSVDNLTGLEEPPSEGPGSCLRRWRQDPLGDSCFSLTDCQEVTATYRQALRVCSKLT
In words: In vitro NUAK2 enzymatic assay (Eurofins Discovery, [γ-33P]-ATP filter assay). It is filed as biochemical. The following applies: 45 μM ATP, 40 min, room temperature; read-out: IC50, inhibitory effect on NUAK2 enzyme activity. As to the method: In Vitro Assay to Determine the Inhibitory Effect of Compounds in the Patent on NUAK2 Enzymatic Activity
The in vitro NUAK2 enzymatic assay was carried out at Eurofins Discovery to evaluate the inhibitory effect of the compounds presented in the invention. The assay protocol is as follow: the compound to be tested was mixed with NUAK2(h) enzyme and 300 […] substrate in 8 mM MOPS (pH 7.0) buffer containing 0.2 mM EDTA. A Mg/ATP mixture containing 10 mM magnesium acetate and 45 μM [γ-33P]-ATP was added to start the reaction. After incubation for 40 min at room temperature, the reaction was terminated by adding 0.5% phosphoric acid. Then 10 μL of the reaction mix was spotted onto a P30 filter paper. The filter paper was washed four times with 0.425% phosphoric acid with 4 min for each wash, and one time with methanol. The filter paper was air-dried and counted in a liquid scintillation counter. The values obtained were plotted against the drug concentration and the IC50 was calculated.
Table 1 summarizes the inhibitory effect (IC50) of compounds on the NUAK2 enzyme activity in the present invention. ++++ indicates IC50≤10 nM; +++ indicates 10 nM<IC50≤100 nM; ++ indicates 100 nM<IC50≤1 μM; + indicates IC50>1 μM.

Regarding `COc1cc(N2CCN(C)CC2)ccc1Nc1ncc2cncc(C3=CCCC3)c2n1` [Example 35, 8-(cyclopent-1-en-1-yl)-N-(2-methoxy-4-(4-methylpiperazin-1-yl)phenyl)pyrido[4,3-d]pyrimidin-2-amine], the concentration for half-maximal inhibition (IC50) on NUAK1(h) enzyme and at NUAK2(h) enzyme was 0.01 to 0.1 µM in each case.

Consider `CCOc1cc(N2CCN(C)CC2)ccc1Nc1ncc2cnc(=O)n(C3CCCC3)c2n1` [Example 7, 1-cyclopentyl-7-((2-ethoxy-4-(4-methylpiperazin-1-yl)phenyl)amino)pyrimido[4,5-d]pyrimidin-2(1H)-one], for which the IC50 is over 1 µM on NUAK1(h) enzyme and 0.1 to 1 µM on NUAK2(h) enzyme.

`CN1CCN(c2ccc(Nc3ncc4cnc(=O)n(C5CCCC5)c4n3)c(OC(F)(F)F)c2)CC1` [Example 9, 1-cyclopentyl-7-((4-(4-methylpiperazin-1-yl)-2-(trifluoromethoxy)phenyl)amino)pyrimido[4,5-d]pyrimidin-2(1H)-one]: the IC50 at NUAK1(h) enzyme and on NUAK2(h) enzyme was over 1 µM throughout.

With `CCC(=O)Nc1cccc(Oc2nc(Nc3ccc(N4CCN(C)CC4)cc3OC)ncc2I)c1` [HTH-02-006, reference compound], the IC50 on NUAK1(h) enzyme fell in the range of 0.01 to 0.1 µM; on NUAK2(h) enzyme, 0.1 to 1 µM.

With `COc1cc(N2CCN(C)CC2)ccc1Nc1nc(C)c2cnc(=O)n(C3CCCC3)c2n1` [Example 13, 1-cyclopentyl-7-((2-methoxy-4-(4-methylpiperazin-1-yl)phenyl)amino)-5-methylpyrimido[4,5-d]pyrimidin-2(1H)-one], the IC50 at NUAK1(h) enzyme and at NUAK2(h) enzyme was over 1 µM in each case.

Take `COc1cc(N2CCN(C)CC2)ccc1Nc1ncc2c(C)c(C(C)=O)c(=O)n(C3CCCC3)c2n1` [Example 36, 6-acetyl-8-cyclopentyl-2-((2-methoxy-4-(4-methylpiperazin-1-yl)phenyl)amino)-5-methylpyrido[2,3-d]pyrimidin-7(8H)-one]: the IC50 on NUAK1(h) enzyme was over 1 µM; on NUAK2(h) enzyme, 0.1 to 1 µM.

As for `COc1cc(N2CCN(C)CC2)ccc1Nc1ncc2c(n1)N(C1CC1)C(=O)CC2` [Example 30], the figures for the IC50 on NUAK1(h) enzyme and at NUAK2(h) enzyme were 0.1 to 1 µM and over 1 µM, respectively.

Regarding `COc1cc(N2CCN(C)CC2)ccc1Nc1ncc2c(n1)N(C1CC1)C(=O)NC2` [Example 3], the IC50 was 0.1 to 1 µM at NUAK1(h) enzyme and over 1 µM at NUAK2(h) enzyme.

Consider `CN1CCN(c2ccc(Nc3ncc4cnc(=O)n(C5CCCC5)c4n3)c(Br)c2)CC1` [Example 12, 7-((2-bromo-4-(4-methylpiperazin-1-yl)phenyl)amino)-1-cyclopentylpyrimido[4,5-d]pyrimidin-2(1H)-one], for which the IC50 on NUAK1(h) enzyme and at NUAK2(h) enzyme was 0.1 to 1 µM each time.

For `COc1cc(N2CCNCC2)ccc1Nc1ncc2c(C)c(C(C)=O)c(=O)n(C3CCCC3)c2n1` [Example 37, 6-acetyl-8-cyclopentyl-2-((2-methoxy-4-(piperazin-1-yl)phenyl)amino)-5-methylpyrido[2,3-d]pyrimidin-7(8H)-one], the IC50 at NUAK1(h) enzyme was over 1 µM; at NUAK2(h) enzyme, 0.1 to 1 µM.

For the molecule `CN1CCN(c2ccc(Nc3ncc4cnc(=O)n(C5CCCC5)c4n3)c(Cl)c2)CC1` [Example 11, 7-((2-chloro-4-(4-methylpiperazin-1-yl)phenyl)amino)-1-cyclopentylpyrimido[4,5-d]pyrimidin-2(1H)-one], the IC50 on NUAK1(h) enzyme and on NUAK2(h) enzyme was 0.1 to 1 µM in each case.

Take `COc1cc(N2CCN(C)CC2)ccc1Nc1ncc2c(n1)N(C1CCCC1)C(=O)CO2` [Example 31, 8-cyclopentyl-2-((2-methoxy-4-(4-methylpiperazin-1-yl)phenyl)amino)-6H-pyrimido[5,4-b][1,4]oxazin-7(8H)-one]: the IC50 at NUAK1(h) enzyme and at NUAK2(h) enzyme was 0.1 to 1 µM each time.

On to `COc1cc(N2CCN(C)CC2)ccc1Nc1ncc2c(n1)N(C1CCCC1)C(=O)N(C)C2` [Example 4, 1-cyclopentyl-7-((2-methoxy-4-(4-methylpiperazin-1-yl)phenyl)amino)-3-methyl-3,4-dihydropyrimido[4,5-d]pyrimidin-2(1H)-one], for which the IC50 at NUAK1(h) enzyme and at NUAK2(h) enzyme was 0.1 to 1 µM throughout.

Take `COc1cc(N2CCN(C)CC2)ccc1Nc1ncc2cnc(=O)n(C3CC3)c2n1` [Example 15, 1-cyclopropyl-7-((2-methoxy-4-(4-methylpiperazin-1-yl)phenyl)amino)pyrimido[4,5-d]pyrimidin-2(1H)-one]: the IC50 is 0.1 to 1 µM on NUAK1(h) enzyme and over 1 µM at NUAK2(h) enzyme.

With `COc1cc(N2CCN(C)CC2)ccc1Nc1ncc2cncc(C3CCCC3)c2n1` [Example 34, 8-cyclopentyl-N-(2-methoxy-4-(4-methylpiperazin-1-yl)phenyl)pyrido[4,3-d]pyrimidin-2-amine], the IC50 at NUAK1(h) enzyme and at NUAK2(h) enzyme was 0.01 to 0.1 µM each time.

In the case of `COc1cc(N2CCN(C)CC2)ccc1Nc1cc2c(cn1)cc(C#N)c(=O)n2C1CCCC1` [Example 25, 1-cyclopentyl-7-((2-methoxy-4-(4-methylpiperazin-1-yl)phenyl)amino)-2-oxo-1,2-dihydro-1,6-naphthyridine-3-carbonitrile], the IC50 at NUAK1(h) enzyme was over 1 µM; on NUAK2(h) enzyme, 0.1 to 1 µM.

`COc1cc(N2CCN(C)CC2)ccc1Nc1ncc2cnc(=O)n(C3CCOCC3)c2n1` [Example 16, 7-((2-methoxy-4-(4-methylpiperazin-1-yl)phenyl)amino)-1-(tetrahydro-2H-pyran-4-yl)pyrimido[4,5-d]pyrimidin-2(1H)-one]: the IC50 at NUAK1(h) enzyme is over 1 µM; on NUAK2(h) enzyme it was 0.1 to 1 µM.

For the molecule `COc1cc(N2CCN(C)CC2)ccc1Nc1ncc2c(n1)N(C1CCOCC1)C(=O)NC2` [Example 33, 7-((2-methoxy-4-(4-methylpiperazin-1-yl)phenyl)amino)-1-(tetrahydro-2H-pyran-4-yl)-3,4-dihydropyrimido[4,5-d]pyrimidin-2(1H)-one], the IC50 on NUAK1(h) enzyme and at NUAK2(h) enzyme was 0.1 to 1 µM each time.

In the case of `COc1cc(N2CCN(C)CC2)ccc1Nc1ncc2cnc(=O)n(C3CCC3)c2n1` [Example 14, 1-cyclobutyl-7-((2-methoxy-4-(4-methylpiperazin-1-yl)phenyl)amino)pyrimido[4,5-d]pyrimidin-2(1H)-one], the IC50 at NUAK1(h) enzyme and on NUAK2(h) enzyme was 0.1 to 1 µM throughout.

As for `CC(C)Oc1cc(N2CCN(C)CC2)ccc1Nc1ncc2cnc(=O)n(C3CCCC3)c2n1` [Example 8, 1-cyclopentyl-7-((2-isopropoxy-4-(4-methylpiperazin-1-yl)phenyl)amino)pyrimido[4,5-d]pyrimidin-2(1H)-one], the IC50 at NUAK1(h) enzyme and at NUAK2(h) enzyme was over 1 µM in each case.
